The text below walks through data of article PMC8692993, “PPARα and PPARγ activation is associated with pleural mesothelioma invasion but therapeutic inhibition is ineffective” (iScience, 2021).

Where two headings read alike, the source gives them in different places.

Data set [1] in a line: Protein binding by rapid equilibrium dialysis, reporter assay media. The conditions noted are these: DMEM/F-12 with 5% dextran-coated charcoal-stripped FCS, mean ± SD, n=3. It counts as in vitro ADME. As to the method: Protein binding was determined via rapid equilibrium dialysis (RED) with incorporation of a pre-saturation step ([Charman et al., 2020]). The pre-incubation process involved RED system being exposed to fresh aqueous solutions of GW6471 (400 nM) for three periods (including one overnight). For the protein binding determination, GW6471 was spiked into the diluted mouse plasma (10% (v/v); in PBS) or DMEM/F-12 media containing 5% dextran-coated charcoal-stripped FCS (at 2000 nM) and dialysed against protein-free PBS (for plasma) or base media (DMEM/F-12) containing GW6471 at 40 nM for 24 h at 37°C under ambient atmosphere on a plate shaker. Concentrations of GW6471 in dialysate and donor samples collected at the end of the dialysis period were determined via LC–MS.
Compound binding was assessed on the basis of the measured concentrations in dialysate and donor samples at the end of the dialysis period.
Based on the post-dialysis measured concentrations in donor (Ctotal_post_dialysis) and dialysate (Cunbound) for each RED unit, the unbound fraction of compound in assay matrix (fu_diluted) was calculated according to Equation 1 below:(Equation 1) fu=Cunbound/Ctotal_post−dialysis
For media, the value for fu calculated according to Equation 1 above was used without further correction. […]

Data set [2] concerns angiopoietin-like 4 (Angptl4). As to the kind of experiment: Angptl4 immunohistochemistry of treated tumors. The note with it: GW6471- versus vehicle-treated tumors. It counts as in vivo, BALB/c mice. As to the method:
Tissues were fixed with 4% paraformaldehyde for 48–72 h and embedded in paraffin. 5 μm sections were cut by microtome (Thermo Fisher Scientific) and placed on Slide SuperFrost Plus White 1 mm (Thermo Fisher Scientific). Slides were deparaffinised as previously explained for hematoxylin and eosin staining. Antigen retrieval was performed with 10 mM citrate, pH6, at high pressure in a pressure cooker for 15 min and 5 min slow release. Sections were rinsed twice with TBST buffer (Tris-Buffer Saline with Tween, 20 mM Tris, 500 mM NaCl, and 0.05% Tween 20) for 5 min under agitation. Quench tissue peroxidase H2O2 was performed for 10 min at room temperature with 3% H2O2 in distilled H2O. The Vectastain® ABC kit, peroxidase (Rabbit IgG) (Vector Laboratories) was used for the following steps. Non-specific binding was performed with 1.5% Normal goat serum in PBS for 20 min at room temperature. Primary antibody Angptl4 (1:50) (409800, Invitrogen), was diluted in PBS/1.5% goat serum and incubated 1 h at room temperature. The secondary biotinylated anti-Rabbit IgG (1:200) (Vector Laboratories), was diluted in PBS and incubated for 30 min at room temperature. Vectastain ABC reagent (Vector Laboratories) was used as per manufacturer's instructions, mixing Reagent A with Reagent B (1:1) and incubating at room temperature 30 min prior use. […]

For data set [3], the target named is T1, PPARα (Homo sapiens, UniProt Q07869).
T1 sequence (Q07869 239-466 limits assumed): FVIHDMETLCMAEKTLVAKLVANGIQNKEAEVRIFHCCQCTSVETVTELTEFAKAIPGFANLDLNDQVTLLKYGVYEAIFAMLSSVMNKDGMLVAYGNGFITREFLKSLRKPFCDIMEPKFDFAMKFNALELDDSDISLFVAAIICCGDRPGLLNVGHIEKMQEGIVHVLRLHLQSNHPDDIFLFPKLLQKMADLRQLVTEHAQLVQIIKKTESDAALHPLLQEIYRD
As to the kind of experiment: HG5LN reporter cell assay, PPARα-mediated transcription. It counts as cell-based. On the set-up: expressed in transfected cells; host or cells: HG5LN (HeLa-derived, GAL4RE-luciferase). From the text: Nuclear receptors, including PPARα and γ, are ligand-inducible transcription factors that form heterodimers with retinoid X receptors and bind to specific DNA sites located in the enhancer/promoter region of target genes, releasing co-repressors and/or recruiting co-activators ([Wang, 2010]). We therefore assessed the functional consequences of the ligands on PPARα and γ-mediated transcriptional activation in reporter cell lines. These cell lines were generated as previously reported by a two-step transfection procedure ([Seimandi et al., 2005]). First, a stable cell line, HG5LN, expressing the reporter gene (GAL4RE-luciferase) was developed from the HeLa cell line. These cells were then transfected with a plasmid expressing the C-terminal ligand-binding domain of PPARα or γ fused to GAL4 DNA-binding domain. The parental HG5LN cells were used as a control to test non-specific modulation of luciferase expression by the small molecules investigated (Figure S4A). The HG5LN PPAR reporter cells therefore allow comparison of the functional activity at, and selectivity of different ligands for, PPARα and γ. […] As expected ([Abu Aboud et al., 2015]), GW6471 potently antagonized PPARα (Figure 4E and Table 1).
A transfected […] cell line HG5LN was used ([Balaguer et al., 2001]). These cells were cultured in Dubecco's modified Eagle's medium (DMEM-F12 Thermo Fisher Scientific) with phenol red and supplemented with 5% foetal calf serum, incubated at 37°C in a 5% CO2/95% air-humidified atmosphere. Luciferase assays were performed in DMEM-F12 (Thermo Fisher Scientific) without phenol red and supplemented with 5% dextran-coated charcoal-stripped FCS (test culture medium), puromycin (Thermo Fisher Scientific) 0.5 μg/mL and geneticin (Thermo Fisher Scientific) 1 mg/mL. Cells were seeded at a density of 5 x 10^4 cells/well and incubated for 8 h at 37°C in a 96-well plate white opaque tissue culture plates (Becton-Dickinson). Tested compounds were added in serial dilutions and incubated for 16 h at 37°C. After incubation, the medium containing the effectors was carefully removed and replaced by culture medium containing 3 x 10^−4 mol/L luciferin (Sigma Chemicals). After 5 min incubation at room temperature, the 96-well plate was then read with a Microbeta Wallac luminometer and the luminescence was measured in the living cells for 2 s. All experiments were performed in quadruplicate.

Data set [4] has as its target T1, PPARα. On the set-up: expressed in transfected cells; host or cells: HG5LN (HeLa-derived, GAL4RE-luciferase); method as in Xu et al., 2002. The note with it: inhibition of agonism by 10 nM GW409544, ref Xu et al., 2002, read-out: Functionality, Lit. IC50; cited from earlier work.

`CCC(=O)NC[C@H](Cc1ccc(OCCc2nc(-c3ccccc3)oc2C)cc1)N/C(C)=C\C(=O)c1ccc(C(F)(F)F)cc1` [GW6471]: the “Fraction unbound (fu)” value in data set [1] amounted to 0.0037 ± 0.0006. The “Angptl4 staining in tumors” value in data set [2] is “decreased staining of Angptl4”. The “Functionality, Type” value in data set [3] was “antagonist”. In addition, the IC50 in data set [3] (inhibition of agonism by 10 nM GW7647, 16 h incubation, mean of 3 experiments ± SEM) is 0.254 ± 0.096 µM; in data set [4] it was 0.24 µM.
